Test results taken from US6339045B1, “N-(unsubstituted or substituted)-4-substituted-6-(unsubstituted or substituted)phenoxy-2-pyridinecarboxamides or thiocarboxamides, processes for producing the same, and herbicides” (Kureha Kagaku Kogyo Kabushiki Kaisha, priority 1995, dated 2002).

How the values were obtained:
Assay in all cases: Herbicidal effect by foliage and soil treatment
Assay type in all cases: in vivo
Conditions in all cases: 10 g ai/10a, evaluated after 14 days
[1] = tested on: kediock (Sinapis arvensis)
Source text: (§1) Experiment for Determination of Herbicidal Effect by Foliate and Soil Treatment Seeds of redroot pigweed (Amaranthus retroflexus), common blackjack (Bidens pilosa), kediock (Sinapis arvensis), common chickweed (Stellaria media), sicklepod (Cassia obtusifolia), black nightshade (Solanum nigrum), velvetleaf (Abutilon theophrasti), field bindweed (Convolvulus arvensis), wild chamomile (Matricaria chamomilla), cleavers (Galium aparine) and […] (Veronica hederaefolia), were uniformly sowed over a horticultural granular soil (produced by KUREHA CHEMICAL INDUSTRY, CO., LTD.; the same soil was used hereinafter) filled in a planter. The planter was placed in a greenhouse (maintained at 19 to 25° C.) to sprout these plants. Two seedlings of each sprouted plant were transplanted to a 10 cm-diameter pot filled with the horticultural granular soil and cultivated in the greenhouse (maintained at 19 to 25° C.) until reaching a cotyledonal to bifoliate period suited to the foliage and soil treatment. […] Next, additional amounts of Tween 20 and water were added to the obtained solution or suspension to produce a test solution. The plants prepared in the above (1) were placed within a frame having a predetermined inside area, and uniformly sprayed with the test solution using a sprayer such that the amount of each compound applied was controlled to a predetermined level. The plants sprayed with the test solution were placed again in the greenhouse (maintained at 19 to 25° C.) and cultivated therein. After 14 days, the degree of growth of each plant cultivated in the treated region was compared with that of plant cultivated in non-treated region, and evaluated according to the following ratings. The herbicidal activity of each test compound was represented by these ratings

[2] = tested on: redroot pigweed (Amaranthus retroflexus)
Source text: as §1

[3] = tested on: cleavers (Galium aparine)
Source text: as §1

[4] = tested on: field bindweed (Convolvulus arvensis)
Source text: as §1

[5] = tested on: wild chamomile (Matricaria chamomilla)
Source text: as §1

[6] = tested on: common blackjack (Bidens pilosa)
Source text: as §1

[7] = tested on: ivyleafspeedwell (Veronica hederaefolia)
Source text: as §1

[8] = tested on: sicklepod (Cassia obtusifolia)
Source text: as §1

[9] = tested on: common chickweed (Stellaria media)
Source text: as §1

[10] = tested on: black nightshade (Solanum nigrum)
Source text: as §1

[11] = tested on: velvetleaf (Abutilon theophrasti)
Source text: as §1

## COc1cc(Oc2cccc(C(F)(F)F)c2)nc(C(=O)NCCCl)c1 [Compound I-35]
[1]
  herbicidal activity rating, SA (Sinapis arvensis): 5 (percentage of weeds killed was not less than 80%)
[2]
  herbicidal activity rating, AR (Amaranthus retroflexus): 5 (percentage of weeds killed was not less than 80%)
[3]
  herbicidal activity rating, GA (Galium aparine): 5 (percentage of weeds killed was not less than 80%)
[4]
  herbicidal activity rating, CA (Convolvulus arvensis): 5 (percentage of weeds killed was not less than 80%)
[5]
  herbicidal activity rating, MC (Matricaria chamomilla): 5 (percentage of weeds killed was not less than 80%)
[6]
  herbicidal activity rating, BP (Bidens pilosa): 5 (percentage of weeds killed was not less than 80%)
[7]
  herbicidal activity rating, VH (Veronica hederaefolia): 5 (percentage of weeds killed was not less than 80%)
[8]
  herbicidal activity rating, CO (Cassia obtusifolia): 5 (percentage of weeds killed was not less than 80%)
[9]
  herbicidal activity rating, SM (Stellaria media): 5 (percentage of weeds killed was not less than 80%)
[10]
  herbicidal activity rating, SN (Solanum nigrum): 5 (percentage of weeds killed was not less than 80%)
[11]
  herbicidal activity rating, AT (Abutilon theophrasti): 5 (percentage of weeds killed was not less than 80%)

## CCCCNC(=O)c1cc(OC)cc(Oc2cccc(C(F)(F)F)c2)n1 [Compound I-36]
[1]
  herbicidal activity rating, SA (Sinapis arvensis): 5 (percentage of weeds killed was not less than 80%)
[2]
  herbicidal activity rating, AR (Amaranthus retroflexus): 5 (percentage of weeds killed was not less than 80%)
[3]
  herbicidal activity rating, GA (Galium aparine): 5 (percentage of weeds killed was not less than 80%)
[4]
  herbicidal activity rating, CA (Convolvulus arvensis): 5 (percentage of weeds killed was not less than 80%)
[5]
  herbicidal activity rating, MC (Matricaria chamomilla): 5 (percentage of weeds killed was not less than 80%)
[6]
  herbicidal activity rating, BP (Bidens pilosa): 5 (percentage of weeds killed was not less than 80%)
[7]
  herbicidal activity rating, VH (Veronica hederaefolia): 5 (percentage of weeds killed was not less than 80%)
[8]
  herbicidal activity rating, CO (Cassia obtusifolia): 5 (percentage of weeds killed was not less than 80%)
[9]
  herbicidal activity rating, SM (Stellaria media): 5 (percentage of weeds killed was not less than 80%)
[10]
  herbicidal activity rating, SN (Solanum nigrum): 5 (percentage of weeds killed was not less than 80%)
[11]
  herbicidal activity rating, AT (Abutilon theophrasti): 4 (percentage of weeds killed was not less than 60% and less than 80%)

## COc1cc(Oc2cccc(C(F)(F)F)c2)nc(C(=O)NC(C)C)c1 [Compound I-37, N-(i-propyl)-4-methoxy-6-{3-(trifluoromethyl)phenoxy}-2-pyridine carboxamide]
[1]
  herbicidal activity rating, SA (Sinapis arvensis): 5 (percentage of weeds killed was not less than 80%)
[2]
  herbicidal activity rating, AR (Amaranthus retroflexus): 5 (percentage of weeds killed was not less than 80%)
[3]
  herbicidal activity rating, GA (Galium aparine): 5 (percentage of weeds killed was not less than 80%)
[4]
  herbicidal activity rating, CA (Convolvulus arvensis): 5 (percentage of weeds killed was not less than 80%)
[5]
  herbicidal activity rating, MC (Matricaria chamomilla): 5 (percentage of weeds killed was not less than 80%)
[6]
  herbicidal activity rating, BP (Bidens pilosa): 5 (percentage of weeds killed was not less than 80%)
[7]
  herbicidal activity rating, VH (Veronica hederaefolia): 5 (percentage of weeds killed was not less than 80%)
[8]
  herbicidal activity rating, CO (Cassia obtusifolia): 5 (percentage of weeds killed was not less than 80%)
[9]
  herbicidal activity rating, SM (Stellaria media): 5 (percentage of weeds killed was not less than 80%)
[10]
  herbicidal activity rating, SN (Solanum nigrum): 5 (percentage of weeds killed was not less than 80%)
[11]
  herbicidal activity rating, AT (Abutilon theophrasti): 4 (percentage of weeds killed was not less than 60% and less than 80%)

## COc1cc(Oc2cccc(OC(F)F)c2)nc(C(=O)NC(C)C)c1 [Compound I-38]
[1]
  herbicidal activity rating, SA (Sinapis arvensis): 5 (percentage of weeds killed was not less than 80%)
[2]
  herbicidal activity rating, AR (Amaranthus retroflexus): 5 (percentage of weeds killed was not less than 80%)
[3]
  herbicidal activity rating, GA (Galium aparine): 5 (percentage of weeds killed was not less than 80%)
[4]
  herbicidal activity rating, CA (Convolvulus arvensis): 4 (percentage of weeds killed was not less than 60% and less than 80%)
[5]
  herbicidal activity rating, MC (Matricaria chamomilla): 4 (percentage of weeds killed was not less than 60% and less than 80%)
[6]
  herbicidal activity rating, BP (Bidens pilosa): 2 (percentage of weeds killed was not less than 20% and less than 40%)
[7]
  herbicidal activity rating, VH (Veronica hederaefolia): 5 (percentage of weeds killed was not less than 80%)
[8]
  herbicidal activity rating, CO (Cassia obtusifolia): 4 (percentage of weeds killed was not less than 60% and less than 80%)
[9]
  herbicidal activity rating, SM (Stellaria media): 4 (percentage of weeds killed was not less than 60% and less than 80%)
[10]
  herbicidal activity rating, SN (Solanum nigrum): 5 (percentage of weeds killed was not less than 80%)
[11]
  herbicidal activity rating, AT (Abutilon theophrasti): 4 (percentage of weeds killed was not less than 60% and less than 80%)

## COc1cc(Oc2cccc(OC(F)(F)F)c2)nc(C(=O)NC(C)C)c1 [Compound I-39]
[1]
  herbicidal activity rating, SA (Sinapis arvensis): 5 (percentage of weeds killed was not less than 80%)
[2]
  herbicidal activity rating, AR (Amaranthus retroflexus): 5 (percentage of weeds killed was not less than 80%)
[3]
  herbicidal activity rating, GA (Galium aparine): 5 (percentage of weeds killed was not less than 80%)
[4]
  herbicidal activity rating, CA (Convolvulus arvensis): 5 (percentage of weeds killed was not less than 80%)
[5]
  herbicidal activity rating, MC (Matricaria chamomilla): 4 (percentage of weeds killed was not less than 60% and less than 80%)
[6]
  herbicidal activity rating, BP (Bidens pilosa): 3 (percentage of weeds killed was not less than 40% and less than 60%)
[7]
  herbicidal activity rating, VH (Veronica hederaefolia): 5 (percentage of weeds killed was not less than 80%)
[8]
  herbicidal activity rating, CO (Cassia obtusifolia): 5 (percentage of weeds killed was not less than 80%)
[9]
  herbicidal activity rating, SM (Stellaria media): 5 (percentage of weeds killed was not less than 80%)
[10]
  herbicidal activity rating, SN (Solanum nigrum): 5 (percentage of weeds killed was not less than 80%)
[11]
  herbicidal activity rating, AT (Abutilon theophrasti): 5 (percentage of weeds killed was not less than 80%)

## COc1cc(Oc2cccc(SC(F)(F)F)c2)nc(C(=O)NC(C)C)c1 [Compound I-40, N-(i-propyl)-4-methoxy-6-{3-(trifluoromethylmercapto)phenoxy}-2-pyridine carboxamide]
[1]
  herbicidal activity rating, SA (Sinapis arvensis): 5 (percentage of weeds killed was not less than 80%)
[2]
  herbicidal activity rating, AR (Amaranthus retroflexus): 5 (percentage of weeds killed was not less than 80%)
[3]
  herbicidal activity rating, GA (Galium aparine): 5 (percentage of weeds killed was not less than 80%)
[4]
  herbicidal activity rating, CA (Convolvulus arvensis): 5 (percentage of weeds killed was not less than 80%)
[5]
  herbicidal activity rating, MC (Matricaria chamomilla): 4 (percentage of weeds killed was not less than 60% and less than 80%)
[6]
  herbicidal activity rating, BP (Bidens pilosa): 4 (percentage of weeds killed was not less than 60% and less than 80%)
[7]
  herbicidal activity rating, VH (Veronica hederaefolia): 5 (percentage of weeds killed was not less than 80%)
[8]
  herbicidal activity rating, CO (Cassia obtusifolia): 5 (percentage of weeds killed was not less than 80%)
[9]
  herbicidal activity rating, SM (Stellaria media): 5 (percentage of weeds killed was not less than 80%)
[10]
  herbicidal activity rating, SN (Solanum nigrum): 5 (percentage of weeds killed was not less than 80%)
[11]
  herbicidal activity rating, AT (Abutilon theophrasti): 5 (percentage of weeds killed was not less than 80%)

## C=CCNC(=O)c1cc(OC)cc(Oc2cccc(C(F)(F)F)c2)n1 [Compound I-42]
[1]
  herbicidal activity rating, SA (Sinapis arvensis): 5 (percentage of weeds killed was not less than 80%)
[2]
  herbicidal activity rating, AR (Amaranthus retroflexus): 5 (percentage of weeds killed was not less than 80%)
[3]
  herbicidal activity rating, GA (Galium aparine): 5 (percentage of weeds killed was not less than 80%)
[4]
  herbicidal activity rating, CA (Convolvulus arvensis): 4 (percentage of weeds killed was not less than 60% and less than 80%)
[5]
  herbicidal activity rating, MC (Matricaria chamomilla): 4 (percentage of weeds killed was not less than 60% and less than 80%)
[6]
  herbicidal activity rating, BP (Bidens pilosa): 3 (percentage of weeds killed was not less than 40% and less than 60%)
[7]
  herbicidal activity rating, VH (Veronica hederaefolia): 5 (percentage of weeds killed was not less than 80%)
[8]
  herbicidal activity rating, CO (Cassia obtusifolia): 5 (percentage of weeds killed was not less than 80%)
[9]
  herbicidal activity rating, SM (Stellaria media): 5 (percentage of weeds killed was not less than 80%)
[10]
  herbicidal activity rating, SN (Solanum nigrum): 5 (percentage of weeds killed was not less than 80%)
[11]
  herbicidal activity rating, AT (Abutilon theophrasti): 4 (percentage of weeds killed was not less than 60% and less than 80%)
